Here are results for one compound from patent US20200390718A1, “METHODS AND COMPOSITIONS FOR […]-VIRAL TRANSFER VECTOR IMMUNE RESPONSE” (Selecta Biosciences, Inc., priority 2019, published 2020).

This assay relates to AAV8-SEAP. Description: Serum SEAP expression after AAV8-SEAP injections. The class given is in vivo, C57BL/6 female mice. The note with it: after the second boost at d140 (FIG. 2A) or d147 (FIG. 2B); AAV8-SEAP 1×10^10 VG. As for the experimental part:
Three groups of C57BL/6 female mice (6 mice each) were injected (r.o.) on days 0 and 56 with 1×10^10 VG of AAV8-SEAP without any nanoparticles (one group) or with ImmTOR™ at 100 μg of rapamycin (synthetic nanocarriers comprising rapamycin, such as those produced in Example 1; two groups). Of the […] two groups, one group was left untreated and one was additionally treated with systemic dexamethasone (i.p., 200 μg in 100 μL per injection) on injection days 0 and 56.
At time indicated in FIGS. 1A and 1B (days 14, 35, 49, 63 and 71 or days 13, 19, 33, 48, 62 and 69), mice were bled, serum separated from whole blood, and stored at −20±5° C. until analysis. SEAP levels in serum were measured using an assay kit from ThermoFisher Scientific (Waltham, Mass., USA). Briefly, sera samples and positive controls were diluted in dilution buffer, incubated at 65° C. for 30 min, then cooled to room temperature, and plated into a 96-well format. Then, assay buffer (5 min) and substrate (20 min) were added and the plates were read on a luminometer (477 nm).
This has warranted a series of further studies in which four groups of C57BL/6 female mice (6 mice each) were injected (r.o.) on days 0, 56 and 140 or 147 with 1×10^10 VG of AAV8-SEAP without any nanoparticles (two groups) or with ImmTOR™ at 100 μg of rapamycin (synthetic nanocarriers comprising rapamycin; two groups). […]

Regarding `C[C@@H]1C[C@H]2[C@@H]3CCC4=CC(=O)C=C[C@]4(C)[C@@]3(F)[C@@H](O)C[C@]2(C)[C@@]1(O)C(=O)CO` [dexamethasone, 9α-fluoro-11β,17α,21-trihydroxy-16α-methylpregna-1,4-diene-3,20-dione], the “benefit in SEAP expression vs. untreated” value was 10-80%.
